Data as given in patent publication US9764046B2, “Labeling composition for intraocular tissue, labeling method of intraocular tissue, and screening method” (CANON KABUSHIKI KAISHA, priority 2008, dated 2017).

Tests used:
[1] = Excitation and fluorescence wavelengths by fluorescence spectrometer FL4500; type: physicochemical; settings: in nm (unit assumed)
[2] = tested on: intraocular tissue (retinal tissue incl. photoreceptor cell layer, vitreous body) of Zebrafish 7-day-old embryo; assay: Staining of intraocular tissue of Zebrafish fry by exposure to staining liquid, ocular tissue section observed by confocal microscope; type: in vivo; settings: Zebrafish 7 dpf fry, 1 μg/mL, 1 hour exposure, fixed ocular section
[3] = aqueous solution: 10 mg/mL DMSO solution diluted to 1/500 with purified water (Examples 1 to 94)

SMILES | λem (fluorescence wavelength) [1, 3] | λex (excitation wavelength) [1, 3] | Staining ability [2] | λem (fluorescence wavelength) [1] | λex (excitation wavelength) [1] | Stained site [2]
Cn1c(=O)cc2c3c(c(NC4CCCCC4)ccc31)C(=O)c1ccccc1-2 [Compound 1] | 619 | 599 | ++ | – | – | –
CCCCCC(CC)Nc1ccc2c3c(cc(=O)n2C)-c2ccccc2C(=O)c13 (stereo not drawn) [Compound 2] | 553 | 486 | +++ | – | – | –
Cn1c(=O)cc2c3c(c(NCc4ccccc4)ccc31)C(=O)c1ccccc1-2 [Compound 3] | 556 | 480 | ++ | – | – | –
O=C1C=Cc2cc(S(=O)(=O)O)cc(S(=O)(=O)O)c2/C1=N/Nc1ccc(S(=O)(=O)O)c2ccccc12 [Compound 4] | 560 | 473 | ++ | – | – | –
Cn1/c(=C/C=C/C2=[N+](CCCS(=O)(=O)[O-])CCS2)oc(=O)/c1=C/C=C1\SCCN1CCCS(=O)(=O)[O-].[Na+] [Compound 14] | – | – | ++ | 617 | 588 | –
CCN1/C(=C\C=C\C2=[N+](CC)c3ccccc3C23CCCCC3)C2(CCCCC2)c2ccccc21.[I-] [Compound 15] | 569 | 496 | +++ | – | – | –
CCC(/C=C1\Oc2ccc(-c3ccccc3)cc2N1CC)=C\c1oc2ccc(-c3ccccc3)cc2[n+]1CC.[I-] [Compound 17] | 564 | 459 | ++ | – | – | 1
CCN(CC)CC.O=S(=O)([O-])CCC[n+]1c(/C=C/C=C2\Sc3ccccc3N2CCCS(=O)(=O)O)sc2ccccc21 [Compound 19] | 576 | 545 | ++ | – | – | 1
CCC(/C=C1\Sc2ccccc2N1CC)=C\c1sc2ccccc2[n+]1CC.[I-] [Compound 20] | 567 | 555 | ++ | – | – | 1
CCC(/C=C1\Sc2c(ccc3ccccc23)N1CC)=C\c1sc2c3ccccc3ccc2[n+]1CC.[I-] [Compound 21] | 377 | 334 | ++ | – | – | –
CCN1C=C/C(=C\C=C\c2oc3ccccc3[n+]2CC)c2ccccc21.[I-] [Compound 22] | 620 | 571 | ++ | – | – | 1
CN(C)c1ccc(/C=C/C=C/c2sc3ccccc3[n+]2CC(=O)O)cc1.[Br-] [Compound 24] | 692 | 609 | ++ | – | – | 1

Further lines, with some results ahead:

λem (fluorescence wavelength) [1, 3] | λex (excitation wavelength) [1, 3] | SMILES | Staining ability [2] | λem (fluorescence wavelength) [1] | λex (excitation wavelength) [1] | Stained site [2]
671 | 635 | O=C(O)CN1/C(=C/C2=C(Cl)C(=C/c3sc4ccccc4[n+]3CC(=O)O)/CCC2)Sc2ccccc21.[Br-] [Compound 25] | ++ | – | – | 1
715 | 679 | CCN1C=C/C(=C\C=C\c2cc[n+](CC)c3ccccc23)c2ccccc21.[I-] [Compound 26] | ++ | – | – | 2
575 | 485 | CCN1/C(=C/C=C/c2sc3ccccc3[n+]2CC)Sc2ccccc21.[I-] [Compound 27] | ++ | – | – | 1
509 | 474 | CCCCCN1/C(=C/C=C/c2oc3ccccc3[n+]2CCCCC)Oc2ccccc21.[I-] [Compound 29] | ++ | – | – | –
664 | 495 | O=C(O)CCN1/C(=C/C2=C(Cl)C(=C/c3sc4ccccc4[n+]3CCC(=O)O)/CCC2)Sc2ccccc21.[I-] [Compound 31] | ++ | – | – | 2
